Measured values taken from US9045505B2, “Nitric oxide donors” (University of Otago, priority 2006, dated 2015).

How the values were obtained:
Jurkat cells = test: Respiration of Jurkat cells (O2 electrode); format: cell-based; conditions: 5 μM; for effect on respiration by Jurkat cells: 37° C.
Description: FIG. 10 is a series of traces and graphs showing the effect of MitoSNAP on respiration in cells. (a-d) Jurkat cells (55×10^6 cells) were incubated in PBS supplemented with 25 mM Hepes pH 7.2 (NaOH), 1 mM sodium pyruvate, 10 μM neocuproine and 100 μM DTPA in the stirred 2.5 ml chamber of an oxygen electrode at 37° C. with 5 μM MitoSNAP (a), MitoNAP (b), SNAP (c) or MitoSNAP and FCCP (500 nM) (d). Where indicated 5 μM OxyHb was added. Traces show typical experiments that were repeated at least three times. Sections of the 02 electrode trace where OxyHb was added for (a) and (b) have been expanded 4-fold in the vertical dimension to facilitate inspection. In all traces the dashed line indicates anaerobiosis. (e) Effect of MitoSNAP on O2 bioavailability in hypoxia. HeLa cells were incubated at 1% O2 concentration with 5% CO2 and the balance N2 for […] before the indicated treatments. Cellular pO2 values, measured by fluorescence quenching oximetry and expressed as mean±sd, are shown. (**p<0.001 compared to hypoxia alone and to MitoNAP treatments by ANOVA).
Cell culture. Cells were grown in medium supplemented with 10% fetal calf serum (FCS), penicillin (100 U.ml^−1) and streptomycin (100 μg.ml^−1) at 37° C. in a humidified atmosphere of 95% air/5% CO2. Jurkat cells were cultured in Roswell park memorial institute (RPMI) 1640 medium supplemented with 2 mM Glutamax and 25 mM Hepes. HeLa cells were grown in minimum essential eagle medium (MEM) containing 2 mM glutamine and non-essential amino acids and were grown to 100% confluence prior to use. […]
To evaluate the selective uptake of MitoSNAP by mitochondria within cells, the effect of MitoSNAP on respiration by Jurkat cells, a T lymphocyte cell line that grows in suspension, was measured using an O2 electrode (FIG. 10). […] Then the effects of a further 30 min incubation with MitoSNAP, MitoNAP or the mitochondrial inhibitor myxathiazol on the steady-state extracellular pO2 was assessed by fluorescence quenching oximetry (FIG. 10e).

[1] = system: endothelium-denuded rat small mesenteric artery; test: Vasorelaxation of endothelium-denuded rat small mesenteric artery; conditions: logistic fit; for EC50: Rattus norvegicus, precontracted with methoxamine
Description: FIG. 17 is a graph showing vasorelaxation of endothelium-denuded rat small mesenteric artery preparations by MitoSNAP and SNAP. To measure vessel relaxation in endothelium-denuded rat mesenteric artery male Wistar rats (250-350 g) were anesthetized with sodium pentobarbitone (60 mg/kg ip Sagatal, Rhone Merieux, Harlow, Essex UK). The mesentery was removed and placed in ice-cold, gassed (95% O2/5% CO2) Krebs-Henseleit buffer. […] Vessels were maintained at 37° C. in Krebs-Henseleit solution containing indomethacin (10 μM) and bubbled with 95% O2/5% CO2 and were allowed to equilibrate under zero tension for 60 min. After equilibration vessels were normalized to a tension equivalent that generated at 90% of the diameter of the vessel at 100 mm Hg^3. Vessels were precontracted with methoxamine and then sequential cumulative additions of test compounds were made to relax the vessels shielded from direct light. Relaxation of muscle tone are expressed as a percentage of relaxation of the initial tone. Data are means of four determination of MitoNAP and MitoSNAP and of 6 for SNAP. Data from the dose-response curves were fitted to a logistic curve, with the following parameters: […]

Structure (SMILES)	effect on respiration by Jurkat cells (Jurkat cells)	EC50 [1] [nM]	max. relaxation of induced tone [1] [%]	slope function (Hill slope) [1]	time for which a low O2 concentration was maintained (Jurkat cells; low O2 concentrations)
CC(=O)NC(C(=O)O)C(C)(C)SN=O (racemic) [SNAP, S-nitroso-N-acetyl-DL-penicillamine, reference compound]	had no effect on respiration	5.2 ± 0.5	92±2	1.0±0.1	
CC(=O)NC(C(=O)NCCCCC[P+](c1ccccc1)(c1ccccc1)c1ccccc1)C(C)(C)SN=O.CS(=O)(=O)[O-] (stereo not drawn) [MitoSNAP, [5-(2-acetylamino-3-methyl-3-nitrosothio-butyrylamino)-penty1]-triphenylphosphonium methanesulfonate]	respiration rate decreased and approached zero	16.5 ± 1.1	96±1	1.3±0.1	at least 30 min
